Source: patent publication US20110039721A1, “METHOD FOR PREDICTION ABOUT CARCINOGENICITY OF SUBSTANCE IN RODENT” (Chemicals Evaluation and Research Institute, priority 2007, published 2011)

What was measured:
[1] = tested on: liver; details: classification Cr+/Cr−; cited from earlier work
[2] = classification M+/M−; cited from earlier work
[3] = tested on: rodent; details: classification C+/C−; cited from earlier work
[4] = tested on: mRNA expressed from the genes (A) to (D) in rat liver; test: Behavior of genes (mRNA expression level, oligo-DNA microarray) in rat liver after 28-day oral administration; assay type: in vivo
How it was run: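 Male F344 SPF rats, 5 weeks old, four per group, dosed by oral gavage once daily for 28 days with test chemical or matched-volume solvent. Liver total RNA profiled on oligo-DNA microarray. Change ≥1.5-fold or ≤1/1.5 versus vehicle counted as significant if its direction matched that seen with other carcinogens.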

CC(=O)Nc1cccc2c1-c1ccccc1C2 [TS061, 4-Acetylaminofluorene]
Liver carcinogenicity [1]: Cr− | Mutagenicity by Ames test [2]: M+ | Carcinogenicity [3]: C− | Behavior of gene caused by administration of chemical substance ([4]; Gene No. 154, Rn.185941, group (C)): − | Behavior of gene caused by administration of chemical substance ([4]; Gene No. 533, Rn.106184, group (C)): − | Behavior of gene caused by administration of chemical substance ([4]; Gene No. 725, Rn.108075, group (C)): − | Behavior of gene caused by administration of chemical substance ([4]; Gene No. 813, Rn.201760, group (C)): − | Behavior of gene caused by administration of chemical substance ([4]; Gene No. 893, Rn.164817, group (C)): − | Behavior of gene caused by administration of chemical substance ([4]; Gene No. 1119, Rn.9757, group (C)): − | Behavior of gene caused by administration of chemical substance ([4]; Gene No. 1131, Rn.144946, group (C)): − | Behavior of gene caused by administration of chemical substance ([4]; Gene No. 1163, Rn.11766, group (C)): + | Behavior of gene caused by administration of chemical substance ([4]; Gene No. 1334, Rn.120914, group (C)): − | Behavior of gene caused by administration of chemical substance ([4]; Gene No. 1494, Rn.1430, group (B)): − | Behavior of gene caused by administration of chemical substance ([4]; Gene No. 1562, Rn.14744, group (C)): − | Behavior of gene caused by administration of chemical substance ([4]; Gene No. 1741, Rn.1647, group (C)): − | Behavior of gene caused by administration of chemical substance ([4]; Gene No. 1993, Rn.18728, group (C)): − | Behavior of gene caused by administration of chemical substance ([4]; Gene No. 2026, Rn.167075, group (A)): + | Behavior of gene caused by administration of chemical substance ([4]; Gene No. 2045, Rn.19329, group (B)): − | Behavior of gene caused by administration of chemical substance ([4]; Gene No. 2203, Rn.21240, group (B)): − | Behavior of gene caused by administration of chemical substance ([4]; Gene No. 2494, Rn.23969, group (C)): − | Behavior of gene caused by administration of chemical substance ([4]; Gene No. 2546, Rn.24561, group (C)): − | Behavior of gene caused by administration of chemical substance ([4]; Gene No. 3776, Rn.43232, group (C)): − | Behavior of gene caused by administration of chemical substance ([4]; Gene No. 3929, Rn.4620, group (C)): − | Behavior of gene caused by administration of chemical substance ([4]; Gene No. 4095, Rn.119024, group (C)): − | Behavior of gene caused by administration of chemical substance ([4]; Gene No. 4218, Rn.167075, group (A)): − | Behavior of gene caused by administration of chemical substance ([4]; Gene No. 4846, Rn.144554, group (A)): + | Behavior of gene caused by administration of chemical substance ([4]; Gene No. 4973, Rn.118529, group (C)): − | Behavior of gene caused by administration of chemical substance ([4]; Gene No. 5600, Rn.9836, group (A)): − | Behavior of gene caused by administration of chemical substance ([4]; Gene No. 5634, Rn.9862, group (C)): − | Behavior of gene caused by administration of chemical substance ([4]; Gene No. 5726, Rn.9939, group (D)): − | Behavior of gene caused by administration of chemical substance ([4]; Gene No. 5878, Rn.143213, group (C)): − | Behavior of gene caused by administration of chemical substance ([4]; Gene No. 6026, Rn.167685, group (C)): − | Behavior of gene caused by administration of chemical substance ([4]; Gene No. 6182, Rn.5834, group (A)): + | Behavior of gene caused by administration of chemical substance ([4]; Gene No. 6303, Rn.123063, group (C)): − | Behavior of gene caused by administration of chemical substance ([4]; Gene No. 6620, Rn.120914, group (C)): − | Behavior of gene caused by administration of chemical substance ([4]; Gene No. 6742, Rn.9779, group (C)): −
